Laboratory results published in the NIST ThermoML archive (doi:10.1021/acs.jced.6b00221).

Columns and labels:
[1] = Liquid, Ebulliometric method (Recirculating still)
[2] = Boiling temperature at pressure P; conditions: Liquid, Ebulliometric method (Recirculating still)

CC(=O)OCC(C)C [2-methylpropyl ethanoate]
Conditions | Boiling temperature at pressure P [°C] | vapor or sublimation pressure [kPa]
[1], 367.51 K | – | 50
[1], 388.93 K | – | 100
[1], 389.37 K | – | 100
[1], 403.22 K | – | 150
[1], 403.64 K | – | 150
[2], 39.99 kPa | 88 | –
[2], 49.98 kPa | 94.26 | –
[2], 59.99 kPa | 99.74 | –
[2], 70 kPa | 104.24 | –
[2], 80 kPa | 108.43 | –
[2], 90 kPa | 112.39 | –
[2], 100 kPa | 116.22 | –
[2], 110 kPa | 119.20 | –
[2], 120 kPa | 122.11 | –
[2], 130 kPa | 125.01 | –
[2], 140 kPa | 127.69 | –
[2], 150 kPa | 130.49 | –

CCOC(C)=O [ethyl acetate]
Conditions | Boiling temperature at pressure P [°C] | vapor or sublimation pressure [kPa]
[1], 330.41 K | – | 50
[1], 349.7 K | – | 100
[1], 362.48 K | – | 150
[2], 54.99 kPa | 59.67 | –
[2], 59.98 kPa | 62.01 | –
[2], 70 kPa | 66.27 | –
[2], 75 kPa | 67.77 | –
[2], 80 kPa | 70.03 | –
[2], 84.99 kPa | 71.78 | –
[2], 89.91 kPa | 73.43 | –
[2], 95.01 kPa | 75.1 | –
[2], 101.33 kPa | 77.01 | –
[2], 104.99 kPa | 78.11 | –
[2], 109.98 kPa | 79.52 | –
[2], 119.9 kPa | 82.21 | –
[2], 124.98 kPa | 83.47 | –
[2], 129.93 kPa | 84.71 | –
[2], 134.95 kPa | 85.93 | –
[2], 139.96 kPa | 87.09 | –
[2], 149.95 kPa | 89.33 | –
[2], 154.97 kPa | 90.41 | –
[2], 159.96 kPa | 91.5 | –
[2], 164.99 kPa | 92.49 | –
[2], 174.99 kPa | 94.46 | –
[2], 180 kPa | 95.43 | –
[2], 185 kPa | 96.4 | –

CC(=O)OCCC(C)C [3-methylbutyl ethanoate]
Conditions | Boiling temperature at pressure P [°C] | vapor or sublimation pressure [kPa]
[1], 413.99 K | – | 100
[2], 20 kPa | 92.14 | –
[2], 29.98 kPa | 102.91 | –
[2], 40.01 kPa | 111.16 | –
[2], 49.99 kPa | 117.92 | –
[2], 60 kPa | 123.61 | –
[2], 70 kPa | 128.57 | –
[2], 80.01 kPa | 133.03 | –
[2], 90 kPa | 137.09 | –
[2], 100.01 kPa | 140.8 | –
[2], 110 kPa | 144.00 | –
[2], 119.99 kPa | 147.28 | –
[2], 130 kPa | 150.31 | –
[2], 139.99 kPa | 153.18 | –
[2], 149.99 kPa | 155.90 | –
[2], 160.01 kPa | 158.46 | –
